# Test results from paper PMC6576746, “Rational discovery of dual-indication multi-target PDE/Kinase inhibitor for precision anti-cancer therapy using structural systems pharmacology” (PLoS Computational Biology, 2019).
# Legend:
# Assay in all cases: cells
# Design in all cases: species or system panel of human cancer cell lines; Eurofins OncoPanel proliferation; nuclei count by high-content fluorescence imaging, 10-point dose response
# [1] = system: GA-10; settings: Homo sapiens, GA-10, 72 h, cell count, 3 days
# Description: (§1) OncoPanel cancer cell proliferation assay was performed by Eurofins Panlabs, Inc. (Missouri, USA). Cancer cells were grown in RPMI 1640, 10% FBS, 2 mM L-alanyl-L-glutamine, 1 mM Na pyruvate, or a special medium. Cells were seeded into 384-well plates and incubated in a humidified atmosphere of 5% CO2 at 37°C. Compounds were added the day following cell seeding. At the same time, a time zero untreated cell plate was generated. After a 3-day incubation period, cells were fixed and stained to allow fluorescence imaging of nuclei. Levosimendan was serially diluted in half-log steps from 100 μM and assayed over 10 concentrations with a maximum assay concentration of 0.1% DMSO. Automated fluorescence microscopy was carried out using a Molecular Devices ImageXpress Micro XL high-content imager, and images were collected with a 4X objective. 16-bit TIFF images were acquired and analyzed with MetaXpress 5.1.0.41 software. Cell count EC50 is the test concentration at the curve inflection point (parameter C), or half the effective response. IC50 is the test compound concentration at 50% of the maximum possible response. GI50 is the concentration needed to reduce the observed growth by half (midway between the relative cell count at the curve maximum and at the time of compound addition). Activity area is an estimate of the integrated area above the response curve. Activity area values range from 0–10, where a value of zero indicates no inhibition of proliferation at all concentrations, and a value of 10 indicates complete inhibition of proliferation at all concentrations.
# [2] = system: HeLa; settings: Homo sapiens, HeLa, 72 h, cell count, 3 days
# Description: as §1
# [3] = system: Hs 683; settings: Homo sapiens, Hs 683, 72 h, cell count, 3 days
# Description: as §1
# [4] = system: J82; settings: Homo sapiens, J82, 72 h, cell count, 3 days
# Description: as §1
# [5] = system: Daoy; settings: Homo sapiens, Daoy, 72 h, cell count, 3 days
# Description: as §1
# [6] = system: FaDu; settings: Homo sapiens, FaDu, 72 h, cell count, 3 days
# Description: as §1
# [7] = system: HepG2; settings: Homo sapiens, HepG2, 72 h, cell count, 3 days
# Description: as §1
# [8] = system: MT-3; settings: MT-3, 72 h, cell count, 3 days
# Description: as §1
# [9] = system: MCF7; settings: Homo sapiens, MCF7, 72 h, cell count, 3 days
# Description: as §1
# [10] = system: Mia PaCa-2; settings: Homo sapiens, MIA PaCa-2, 72 h, cell count, 3 days
# Description: as §1
# [11] = system: SJRH30; settings: Homo sapiens, SJRH30, 72 h, cell count, 3 days
# Description: as §1
# [12] = system: HuCCT1; settings: Homo sapiens, HuCCT-1, 72 h, cell count, 3 days
# Description: as §1
# [13] = system: HT1376; settings: Homo sapiens, HT-1376, 72 h, cell count, 3 days
# Description: as §1
# [14] = system: HOS; settings: Homo sapiens, HOS, 72 h, cell count, 3 days
# Description: as §1
# [15] = 50% of maximum possible response
compound,measurement,setting,value
C[C@@H]1CC(=O)NN=C1c1ccc(NN=C(C#N)C#N)cc1 [levosimendan],IC50,[1]; [15],10.2 µM
same,GI50,[1]; corrected for time zero,9.28 µM
same,EC50,[1]; curve inflection point,10.2 µM
same,IC50,[2]; [15],91.2 µM
same,GI50,[2]; corrected for time zero,75 µM
same,EC50,[2]; curve inflection point,91.2 µM
same,IC50,[3]; [15],> 100 µM
same,GI50,[3]; corrected for time zero,> 100 µM
same,EC50,[3]; curve inflection point,51.2 µM
same,IC50,[4]; [15],> 100 µM
same,GI50,[4]; corrected for time zero,> 100 µM
same,EC50,[4]; curve inflection point,> 100 µM
same,IC50,[5]; [15],16.7 µM
same,GI50,[5]; corrected for time zero,13 µM
same,EC50,[5]; curve inflection point,16.7 µM
same,IC50,[6]; [15],63.1 µM
same,GI50,[6]; corrected for time zero,56.4 µM
same,EC50,[6]; curve inflection point,63.1 µM
same,IC50,[7]; [15],42.1 µM
same,GI50,[7]; corrected for time zero,36.7 µM
same,EC50,[7]; curve inflection point,42.1 µM
same,IC50,[8]; [15],> 100 µM
same,GI50,[8]; corrected for time zero,> 100 µM
same,EC50,[8]; curve inflection point,> 100 µM
same,IC50,[9]; [15],32.4 µM
same,GI50,[9]; corrected for time zero,19 µM
same,EC50,[9]; curve inflection point,16.1 µM
same,IC50,[10]; [15],11 µM
same,GI50,[10]; corrected for time zero,9.38 µM
same,EC50,[10]; curve inflection point,9.92 µM
same,IC50,[11]; [15],11.4 µM
same,GI50,[11]; corrected for time zero,7.7 µM
same,EC50,[11]; curve inflection point,9.67 µM
same,IC50,[12]; [15],27.5 µM
same,GI50,[12]; corrected for time zero,24.8 µM
same,EC50,[12]; curve inflection point,25.4 µM
same,IC50,[13]; [15],> 100 µM
same,GI50,[13]; corrected for time zero,> 100 µM
same,EC50,[13]; curve inflection point,> 100 µM
same,IC50,[14]; [15],11.4 µM
same,GI50,[14]; corrected for time zero,9.54 µM
same,EC50,[14]; curve inflection point,11.4 µM
